The values that follow come from ChEMBL document CHEMBL1132878, “Phosphonamidate and phosphothioate dipeptides as potential inhibitors of VanX” (Bioorg Med Chem Lett, 2000).

The test system of assay [1] is Stenotrophomonas maltophilia. Put plainly: Tested for inhibitory activity against metallo-beta-lactamase L1 from Stenotrophomonas maltophilia at compound concentration up to […] at pH 7.0 using nitrocefin as substrate; No inhibition. The format is functional.
Assay [2] can be described thus: Compound was evaluated for inhibition of Van X at pH 7.0.
A short description of assay [3]: Compound was evaluated for inhibition of Van X at pH 7.0; No inhibition.
A short description of assay [4]: Compound was evaluated for inhibition of Van X.

The source made the active and inactive calls. No cut-off for these calls is given here.

Turning to `CC(OP(=O)(O)C(C)N)C(=O)O` (configuration not stated), the outcome in assay [1] was inactive. Affinity in assay [2] was put at a Ki of 400 µM.

For `CC(N)P(=O)(O)SCC(=O)O` (configuration not stated), in assay [1], the result was inactive. Moreover, in assay [3], the Ki (in general, the dissociation constant of the complex between target and ligand, obtained from inhibition or displacement) is reported as “Not Active”.

With `CC(NP(=O)(O)C(C)N)C(=O)O` (configuration not stated), the outcome in assay [1] was inactive. In assay [2], this compound registered a Ki of 36 µM.

`CC(C[PH](=O)C(C)N)C(=O)O` (configuration not stated) registered a Kis in assay [4] of 0.32 µM.
